Measurements published in patent US20100278837A1, “Compositions And Methods For Reducing Cancer And Inflammation” (The Regents of the University of California, priority 2009, published 2010).
Read-outs that look alike come from different tables or passages of the source.

How the values were obtained:
[1] = system: CD11b+ cells adhesion to endothelium; test: Adhesion of CD11b+ cells to endothelium (Example 1 adhesion assay); format: cell-based, murine; conditions: SDF-1α, TCM or IL-1β (and other chemoattractant) induced
Method: TCM was prepared from serum-free media cultured on LLC cells for 18 h and filtered through 0.22 μm filters. 10^5 calcein-AM labelled human or murine CD11b+ cells in TCM or DMEM containing 200 ng/ml SDF-1α, IL-1β, IL-6, IL-8 or VEGF-A (R&D Systems) were incubated on HUVEC monolayers or on plastic plates coated with 5 μg/ml recombinant soluble VCAM-1 (R&D Systems). Adherent cells were quantified using a fluorescence activated plate reader (GeniosPro, TECAN). In some assays, cells were also incubated in 25 μg/ml anti-integrin α4β1 (PS2 for murine cells and HP2/1 for human cells, gifts from Biogen-Idec) and isotype control antibodies (IgG2bk for murine cells and IgG1 for human cells). In some studies, cells were incubated in 10 μM pan PI3K inhibitors […] or TG020, in PI3kinase α inhibitor PI3K75, PI3kinase γ/δ inhibitor TG115 and an inert control.

[2] = Pharmacokinetic analysis of TG100-115 in serum; format: in vivo, Balb/c mice; conditions: mouse
Method: (§1) Pharmacokinetic analysis of a 5 mg/kg bolus dose TG100-115 in Balb-c mice was accomplish by evaluating TG100-115 levels in serum at 5, 15, 30, 60 minute intervals as was previously performed for rats^25. In vivo activity assay of a 5 mg/kg bolus dose TG100-115 in Balb-c mice was accomplish by evaluating pAkt/Akt levels in peripheral blood cells in response to SDF-1α stimulation at 0.25, 0.5, 1, 2, 4, 6 and 12 hour intervals

PI3kinase = test: In vivo PI3kinase activity assay (pAkt/Akt in peripheral blood mononuclear cells after i.v. dosing); set-up: species or system mice
Method: as §1
CD11b+ cells from C57BL/6 mice or PI3-kinase γ−/− mice were freshly isolated under serum free-conditions and were incubated for 30 min in serum-free media in the presence or absence of 1 μM TG100-115. CD11b+ cells were then stimulated with 200 ng/ml IL-1β or SDF-1α (R&D Systems) for 1-3 minutes and cells were solubilized with RIPA buffer. Alternatively, mice were injected intravenously with […] TG100-115 or a chemically similar inert control. Mononuclear peripheral blood leukocytes were isolated from 2 mice each at 0.5, 1, 2, 4, 6 and 12 hours after treatment. Cells were treated for 3 minutes with 200 ng/ml SDF and then solubilized with RIPA buffer. Lysates were electrophoresed and Western blotted. Akt phosphorylation was evaluated by immunoblotting with anti-phosphorylated Thr308-Akt specific antibody (C31 E5E, Cell Signalling). Blots were stripped and reprobed with anti-Akt (#9272, Cell Signaling). Films were scanned and quantified by densitometry.

[3] = system: CD11b+ myeloid cell adhesion to VCAM-1; test: Chemoattractant-stimulated CD11b+ myeloid cell adhesion to VCAM-1 / endothelial cells (Example 9 adhesion assay); format: cell-based, mouse; conditions: Mus musculus, Endothelial cell, read-out: IC50, CD11b+ cell adhesion to VCAM-1
Method: 1×10^5 calcein-AM labelled human CD11b+ cells isolated from buffy coats from the San Diego Blood Bank or murine CD11b+ cells isolated from naïve (non-tumour bearing) or tumour-bearing mice were incubated on HUVEC monolayers or on plastic plates coated with 5 μg/ml recombinant soluble VCAM-1 or ICAM-1 (R&D Systems) for 30 minutes at 37° C. with humidity in the presence of LLC Tumour Conditioned Medium (TCM) or DMEM containing 200 ng/ml SDF1α, IL1β, IL6, TNFα or VEGF-A (R&D Systems). (SDF-1α and IL-1β were initially titrated to determine the minimum dose required to achieve near maximal stimulation of adhesion). TCM was prepared by incubating LLC cells in serum-free media for 18 h and filtering through 0.22 μm filters. After washing three times with warmed medium, adherent cells were quantified using a plate fluorimeter (GeniosPro, TECAN).
In some adhesion assays, cells were also incubated in 25 μg/ml function-blocking anti-integrin α4β1 (rat anti-murine, PS2 or mouse anti-human, HP2/1, gifts from Biogen-Idec), rat-anti-αM (anti-CD11b, M1/70) and isotype control antibodies (rat IgG2κ or mouse IgG1) or with 0.1 nM-10 μM doses of the small molecule inhibitor of integrin α4, ELN476063 (IC50=10 nM), a gift from Elan^14.
Additionally, labelled cells were incubated with HUVEC and rsVCAM coated plates in the presence of […] or SDF-1α and 1-10 μM inhibitors: pan-PI3 kinase inhibitors ([…], wortmannin), PI3-kinase α inhibitors (PI3K75, PIK2alpha, PI103), PI3-kinase β inhibitor (TGX221), PI3-kinase γ inhibitors (TG100-115, AS605240, AS604850), inert control, PLC inhibitor (U73122), geranylgeranyltransferase (Rap1-selective) inhibitors (GGTI-2147 and GGTI-298) or farnesyltransferase (Ras-selective) inhibitor (FTI-277), Akt inhibitors (Inhibitor X and peptide 18), mTOR inhibitor (rapamycin), ROCK inhibitor (Y27632), MEK inhibitor (PD98059), p38 inhibitor (SB202190), tyrosine kinase inhibitor (genestein) and PKA inhibitors (H89, KT5720). LY294002, wortmannin, genestein, U73122, GGTI-2147, GGTI-298, FTI-277, Y27632, PD98059, SB202190, H89 and KT5720 were from Calbiochem. PIK2alpha, PI103, AS605240, AS604850 and TGX221 were from Echelon. TG100-115 was prepared as described^25-26. To titrate the effect of various signalling protein inhibitors on myeloid cell adhesion stimulated by IL-1β or SDF-1α, cells were incubated in 1 nm to 100 μM PI3-kinase inhibitors TG00020 (a pan-PI3-kinase inhibitor), PI3-kinase α inhibitor (PI3Kalpha2) PI3-kinase β inhibitor (TGX221), PI3-kinase γ inhibitors (TG100-115, AS605240), an inert chemically matched control, farnesyltrasnferase inhibitors and geranylgeranyltransferase inhibitors. IC50s for GGTI and FTI were 1 μM. […] Adherent GFP+ cells were automatically quantified using MetaMorph software (Molecular Devices Software).

PyMT breast tumours = test: Spontaneous PyMT breast tumour progression in treated mice; format: in vivo, FVB PyMT+ female mice
Method: Alternatively, 6 week old PyMT+ female mice (with spontaneous breast tumours), were treated by subcutaneous injection with ELN476063 (3 mg/kg body weight), or saline every third day for three weeks (n=10). Tumours were excised, weighed and analyzed from 6 weeks at 9 weeks of age.
PI3-kinase γ inhibitor studies: C57BL/6 mice were subcutaneously implanted on d1 with 5×10^5 LLC or by intradermal injection with 5×10^5 B16 melanoma cells. Mice were treated by i.p. injection with 2.5 mg/kg of PI3-kinase γ inhibitor (TG100-115) or with a chemically similar inert control (n=10) twice daily for fourteen days for a total daily dose of 5 mg/kg. In additional studies, C57BL/6 mice were subcutaneously implanted on d1 with 5×10^5 LLC and were treated by i.p. injection with 2.5 mg/kg, 0.25 mg/kg, or 0.025 mg/kg of PI3-kinase γ inhibitor (TG100-115), with 2.5 mg/kg of AS605240 or with a chemically similar inert control (n=10) twice daily for twenty-one days for a total daily dose of 5 mg/kg. Tumour volumes, weights and blood vessel densities, as well as myeloid cell densities were measured. Alternatively, 6 week old PyMT+ female mice (with spontaneous breast tumours), were treated by i.p. injection with 2.5 mg/kg PI3-kinase γ inhibitor (TG100-115) or inert control twice daily for three weeks (n=10). Tumours were excised, weighed and analyzed after 3 weeks. Alternatively, 6 week old FVB PyMT+ female mice were implanted with an Alzet osmotic pump with a 0.25 μl/h release rate containing 4.6 mg in 200 μl of TG100-115 or chemically similar, inert control (n=10). Mice were sacrificed at 9 weeks of age and tumours were analyzed.
Inguinal mammary glands were fixed in Carnoy's fixative, dehydrated through a graded series of ethanol solutions and defatted in xylene. Following rehydration, the mammary epithelium was stained with carmine stain (Sigma Chemical, St Louis, Mo.) for 30 min. After removing excess stain by washing in water, samples were dehydrated and stored in methyl salicylate (Sigma Chemical, St Louis, Mo.).^31

half-life ([2]; Balb/c, intravenous, 5 mg/kg, read-out: t1/2 in vivo (converted)) [min]	concentration at 1 h ([2]; iv, single i.v. dose of 5 mg/kg, Balb/c mice) [ng/mL]	half-life ([2]; iv, single i.v. dose of 5 mg/kg, Balb/c mice, read-out: half-life in mice in vivo (converted)) [min]	IC50 ([3]; IL-1β stimulated) [nM]	IC50 ([3]; SDF-1α stimulated) [nM]	SMILES	CD11b+ cell adhesion to endothelium [1]	time after dosing for which PI3kinase activity is inhibited (PI3kinase; 5 mg/kg i.v., PBMC stimulated 3 min with SDF-1α)	myeloid cell PI3kinase catalytic activity in vivo (PI3kinase; mouse, in vivo)	carcinoma area in mammary gland whole mounts (PyMT breast tumours)	hyperplasia area in mammary gland whole mounts (PyMT breast tumours)	normal tissue area in mammary gland whole mounts (PyMT breast tumours)
–	–	–	–	–	c1cc(CN2CCCNCCNCCCNCC2)ccc1CN1CCCNCCNCCCNCC1 [AMD3100]	inhibited SDF-1α, and TCM-induced but not IL-1β induced adhesion	–	–	–	–	–
13.2	7.1	13.2	281	158	Nc1nc(N)c2nc(-c3cccc(O)c3)c(-c3cccc(O)c3)nc2n1 [TG100-115, 3,3′-(2,4-diaminopteridine-6,7-diyl)diphenol]	–	up to 12 hours	rapidly and sustainably inhibits myeloid cell PI3kinase catalytic activity in vivo	6+/−1.3%	27+/−5%	67+/−3%
